This passage reports IC50 results from patent US5114925A, “Renin inhibitors containing the 2-[[(2R,3S)-3-amino-4-cyclohexyl-2-hydroxy-1-butyl]thio)alkanoyl moiety and the corresponding sulfoxide and sulfone derivatives” (Merck & Co., Inc., priority 1991, dated 1992).

For the test, the target named is T1, human renin (Homo sapiens, UniProt P00797).
T1 construct: added to human plasma (75 μl) containing EDTA; from tissue; host or cells: human plasma
T1 sequence (P00797 67-406): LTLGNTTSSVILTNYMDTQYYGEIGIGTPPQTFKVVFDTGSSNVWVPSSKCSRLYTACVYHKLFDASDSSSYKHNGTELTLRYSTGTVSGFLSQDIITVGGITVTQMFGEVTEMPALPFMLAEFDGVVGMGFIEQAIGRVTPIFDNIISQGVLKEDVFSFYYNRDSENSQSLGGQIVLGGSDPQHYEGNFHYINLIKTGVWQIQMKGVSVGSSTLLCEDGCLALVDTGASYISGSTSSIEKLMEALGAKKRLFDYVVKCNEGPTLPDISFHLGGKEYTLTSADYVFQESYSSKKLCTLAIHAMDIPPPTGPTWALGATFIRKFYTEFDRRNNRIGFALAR
The test is described as follows: plasma renin assay (radioimmunoassay of angiotensin-I released in human plasma). The format is biochemical. The settings on record: human renin and human renin substrate in human plasma, 37° C., pH 6.9, angiotensin-I by radioimmunoassay; read-out: IC50 (the molar concentration required to cause 50% inhibition), renin inhibitory activity. The method, then:
It is based on the measurement, by radiommunoassay, of Angiotensin-I released from human renin substrate by human renin in human plasma. The inhibitor is dissolved in 0.01N HCl (10 μl) and added to human plasma (75 μl) containing EDTA, and angiotensin-I antibody ([…]) in 3M-Tris.HCl buffer (pH 6.9).
Free and bound ligand are separated by the addition of dextran-coated charcoal, and the amount of bound radio-ligand determined in a gamma counter.
Turning to `CC(C)(C)OC(=O)N[C@@H](Cc1ccccc1)C(=O)N[C@@H](Cc1cnc[nH]1)C(=O)N[C@@H](CC1CCCCC1)[C@@H](O)CS(=O)(=O)CC(=O)NCCN1CCOCC1`, the IC50 was 9.4 nM. Regarding `CC(C)CC(SC[C@H](O)[C@H](CC1CCCCC1)NC(=O)[C@H](Cc1c[nH]cn1)NC(=O)[C@H](Cc1ccccc1)NC(=O)OC(C)(C)C)C(=O)NCCN1CCOCC1` (mixture of isomers) [4-[2-[[(2RS)-2-[[(2R,3S)-3-(Boc-L-phenylalanyl-L-histidylamino)-4-cyclohexyl-2-hydroxy-1-butyl]thio]methylpentanoyl]-4-methylpentanoyl]amino]ethyl]morpholine], the IC50 came to 73 nM. For the molecule `CC(C)(C)OC(=O)N[C@@H](Cc1ccccc1)C(=O)N[C@@H](Cc1c[nH]cn1)C(=O)N[C@@H](CC1CCCCC1)[C@@H](O)CS(=O)(=O)CC(=O)NC1CCN(Cc2ccccc2)CC1` [1-benzyl-4-[2-[X-sulfonyl]acetamido]piperidine], the IC50 stood at 34 nM. Regarding `CC(C)(C)OC(=O)N[C@@H](Cc1ccccc1)C(=O)N[C@@H](Cc1c[nH]cn1)C(=O)N[C@@H](CC1CCCCC1)[C@@H](O)CSCC(=O)O` [2-[X-thio]acetic acid, 2-[[(2R,3S)-3-(Boc-L-phenylalanyl-L-histidylamino)-4-cyclohexyl-2-hydroxy-1-butyl]thio]acetic acid], the IC50 worked out at 904 nM. With `CC(C)(C)OC(=O)N[C@@H](Cc1ccccc1)C(=O)N[C@@H](Cc1c[nH]cn1)C(=O)N[C@@H](CC1CCCCC1)[C@@H](O)CS(=O)(=O)CC(=O)NC1C[N+]2([O-])CCC1CC2` (stereo partly shown) [3-[2-[X-sulfonyl]acetamido]quinuclidine-N-oxide] the figure was 4.2 nM; with `CC(C)(C)OC(=O)NC(Cc1ccccc1)C(=O)NC(Cc1cnc[nH]1)C(=O)NC(CC1CCCCC1)C(O)CSCC(=O)NC1CN2CCC1CC2` (stereo not shown) [3-[2-[X-thio]acetamido}quinuclidine], 29 nM. Consider `CC(C)(C)OC(=O)N[C@@H](Cc1ccccc1)C(=O)N[C@@H](Cc1cnc[nH]1)C(=O)N[C@@H](CC1CCCCC1)[C@@H](O)CSCC(=O)NCCN1CCOCC1` [4-[2-[2-[X-thio]acetamido]ethyl]morpholine], for which the IC50 was 40 nM. Take `CC(C)(C)S(=O)(=O)C[C@@H](Cc1ccccc1)C(=O)N[C@@H](Cc1c[nH]cn1)C(=O)N[C@@H](CC1CCCCC1)[C@@H](O)CS(=O)(=O)CC(=O)NCCN1CCOCC1` [4-[2-[2-[[(2R,3S)3-[N^α -[(S)-2-[(t-Butylsulfonyl)-methyl]-3-phenylpropionyl]-L-histidylamino]-4-cyclohexyl-2-hydroxy-1-butyl]sulfonyl]-acetamido]ethyl]morpholine]: the IC50 was 7.2 nM. With `CN1CCN(C(=O)CS(=O)(=O)C[C@H](O)[C@H](CC2CCCCC2)NC(=O)[C@H](Cc2cnc[nH]2)NC(=O)[C@H](Cc2ccccc2)NC(=O)OC(C)(C)C)CC1` [4-[2-[X-sulfonyl]acetyl]-1-methylpiperazine] the figure was 20 nM; with `CN1CCN(C(=O)CSC[C@H](O)[C@H](CC2CCCCC2)NC(=O)[C@H](Cc2cnc[nH]2)NC(=O)[C@H](Cc2ccccc2)NC(=O)OC(C)(C)C)CC1` [4-[2-[X-thio]acetyl]-1-methylpiperazine, 4-[2-[[(2R,3S)-3-(Boc-L-phenylalanyl-L-histidylamino)-4-cyclohexyl-2-hydroxy-1-butyl]thio]acetyl]-1-methylpiperazine], 29 nM. For `CC(C)CC(C(=O)NCCN1CCOCC1)S(=O)(=O)C[C@H](O)[C@H](CC1CCCCC1)NC(=O)[C@H](Cc1c[nH]cn1)NC(=O)[C@H](Cc1ccccc1)NC(=O)OC(C)(C)C` (stereo partly shown) [4-[2-[[2 ---- RS )-2 [X-sulfonyl]-4-methyl-pentanoyl]amino]ethyl]morpholine], the IC50 stood at 77 nM. With `CC(C)CC(C(=O)NCCN1CCOCC1)[S+]([O-])C[C@H](O)[C@H](CC1CCCCC1)NC(=O)[C@H](Cc1cnc[nH]1)NC(=O)[C@H](Cc1ccccc1)NC(=O)OC(C)(C)C` (stereo partly shown) [4-[2-[[(2 ---- RS )-2-[X-sulfinyl]-4-methyl-pentanoyl]amino]ethyl]morpholine] the figure was 88 nM.

Consider `CC(C)(C)OC(=O)N[C@@H](Cc1ccccc1)C(=O)N[C@@H](Cc1c[nH]cn1)C(=O)N[C@@H](CC1CCCCC1)[C@@H](O)CSCC(=O)NCc1ccncc1` [4-[[2-[X-thio]acetamido]methyl]pyridine], for which the IC50 came out at 92 nM. Consider `CC(C)(C)OC(=O)N[C@@H](Cc1ccccc1)C(=O)N[C@@H](Cc1cnc[nH]1)C(=O)N[C@@H](CC1CCCCC1)[C@@H](O)C[S+]([O-])CC(=O)NCCN1CCOCC1` (stereo partly drawn) [4-[[(2R,3S)-3-(Boc-L-phenylalanyl-L-histidylamino)-4-cyclohexyl-2-hydroxy-1-butyl]-sulfinyl]acetyl]amino]ethyl]morpholine], for which the IC50 was 19 nM. With `CNCCN(C)C(=O)CSC[C@H](O)[C@H](CC1CCCCC1)NC(=O)[C@H](Cc1c[nH]cn1)NC(=O)[C@H](Cc1ccccc1)NC(=O)OC(C)(C)C` [N-[2-[[(2R,3S)-3-(Boc-L-phenylalanyl-L-histidylamino)-4-cyclohexyl-2-hydroxy-1-butyl]thio]acetyl]-N,N'-dimethylethylenediamine], the IC50 was determined as 161 nM. For `CCOC(=O)CSC[C@H](O)[C@H](CC1CCCCC1)NC(=O)[C@H](Cc1cnc[nH]1)NC(=O)[C@H](Cc1ccccc1)NC(=O)OC(C)(C)C` [ethyl 2-[X-thio]acetate, ethyl 2-[[(2R,3S) 3-(Boc-L-phenylalanyl-L-histidylamino)-4-cyclohexyl-2-hydroxy-1-butyl]thio]acetate], the IC50 is 58 nM.
